Here are results for one molecule from US20050059615A1, “Transmucosal dosage forms for brain-targeted steroid chemical delivery systems” (priority 2003, published 2005).

Structures are written as SMILES. Like-named read-outs stand apart in the source and are kept apart here.

Data set [1] relates to LH. The data set can be described thus: Plasma LH in ovariectomized female rats (radioimmunoassay). Type of data set: in vivo, Sprague Dawley rats. Here is the method: (§1) After recovery from surgery, ovariectomized female rats were divided into four groups and treated once a day for five days intravenously, via a bolus injection through the tail vein, as follows: (1) control, 27% HPβCD solution; (2) 0.003 mg/kg E2-CDS dissolved in 27% HPβCD solution; (3) 0.01 mg/kg E2-CDS dissolved in 27% HPβCD solution; and (4) 0.03 mg/kg E2-CDS dissolved in 27% HPβCD solution. A minimal number of ovariectomized (8 to 12) females were used per group. Intravenous treatments either with E2-CDS or HPβCD (controls) were carried out daily for 5 days beginning 2 days prior to the first day of behavior observations, in a volume of 0.05 mL/100 g body weight.
(§2) An experienced and active male rat was placed in the arena 5 minutes prior to the female. […] The lordosis quotient (LQ) expresses the estrogen effect on sexual receptivity and was calculated as follows: LQ=100×number of lordoses/10 mounts The observation of the sexual behavior of each female was carried out, in the case of E2-CDS, every day for 22 days; in the case of EB, investigations were carried out every day for 10 days. […] Citrated blood samples were taken by retro-orbital sinus puncture under light ether anesthesia. The samples were stored at 4EC for one hour, then centrifuged at 1000 g for 10 minutes. Plasma was separated and stored at −80EC until assayed. Plasma LH concentrations from individual samples were measured by double antibody radioimmunoassay kits obtained from Amersham Pharmacia Biotech, Rome, Italy. […] The limit of detection was 15 pg/mL.
(§3) Behavioral changes were analyzed using the Mann-Whitney U test (Siegel, Nonparametric Statistics for the Behavioral Sciences, New York; McGraw-Hill Book Company, Inc., 1956). The Fisher exact test was used for percentage comparisons (Zar, Biostatistical Analysis, Prentice Hall, Inc., Englewood Cliffs, N.J., 1974). Serum LH data were analyzed for each time and treatment group by analysis of variance (ANOVA) followed by Bonferroni posthoc test.

Data set [2] deals with ovariectomized female rats. The data set can be described thus: Lordosis quotient, female rat sexual behavior after ovariectomy. Type of data set: in vivo, Sprague Dawley rats. The procedure: Adult female Sprague Dawley rats (220-250 g) from Charles River Hungary Ltd., Godollo, Hungary, were used. Animals were kept in community cages (4 animals/cage) in a climate-controlled room (23∀2EC, 50-60% humidity), with a 14 hour light, 10 hour dark cycle of artificial lighting, using reversed light/dark cycle. Food and water were available ad libitum.
After a minimum five-day acclimatization period, animals were ovariectomized under ether anesthesia, then were left to recover for 3 weeks before testing (reconvalescence). All animals were treated in accordance with the guidelines of the European Communities Council Directive (86/609/EEC) and studies were permitted by the Institutional Animal Care Commission.
Estradiol benzoate and progesterone were obtained from Sigma Chemical Co. Inc., Budapest, Hungary. 2-Hydroxypropyl-β-cyclodextrin was purchased from Cerestar Inc., Hammond, Ind., US. […] E2-CDS as a 3% complex with HPβCD (E2-CDS-CD) was dissolved in distilled water and diluted with 27% HPβCD solution. E2-CDS-CD was synthesized by Alchem Laboratories Corporation, Alachua, Fla., US, using the procedure of Example 2 above.
as §1
The behavior test was conducted in a plexiglass observation cage during the dark cycle. During behavioral observations, only a dim red light was on.
as §2, §3

Data set [3] is described as follows: Plasma estradiol in orchidectomized male rats (radioimmunoassay). The data set is classed as in vivo, Sprague Dawley rats. As to conditions: limit of detection 15 pg/mL. The procedure:
(§4) Four weeks following orchidectomy, groups of rats were treated with one of the following drug doses via tail vein injection: E2-CDS 0.03, 0.3, and 3 mg/kg. Blood samples were collected by orbital sinus puncture under light ether anesthesia. The samples were stored at 4EC for one hour and centrifuged at 1,000 g for 10 minutes. Plasma was separated and stored at −80EC until assayed. Plasma LH concentrations from individual samples were measured by double antibody radioimmunoassay kits obtained from Amersham Pharmacia Biotech, Rome, Italy. […] The limit of detection was 15 pg/mL.
as §3
(§5) The testing described above was repeated using a dose of 0.03 mg/kg administered as a single i.v. injection, and a dose of 0.01 mg/kg with daily i.v. administration for 10 days. E2-CDS stock solution (40%) was diluted in 27% HPβCD solution.

The conditions of data set [4]: average 7 degrees of substitution, cited from earlier work.
The subject of data set [5] is LH. Kind of data set: Plasma LH in orchidectomized male rats (radioimmunoassay). Type of data set: in vivo, Sprague Dawley rats. Here is the method: as §4, §3, §5
Setting [6] is: 0.003 mg/kg i.v. once a day for 5 days.
[7] abbreviates: 0.01 mg/kg i.v. once a day for 5 days.
[8] abbreviates: 0.03 mg/kg i.v. once a day for 5 days.
Setting [9] is: 0.03 mg/kg single i.v., first study.

Take `CN1C=CCC(C(=O)O[C@H]2CC[C@H]3[C@@H]4CCc5cc(O)ccc5[C@H]4CC[C@]23C)=C1` [E2-CDS, 17β-[(1-methyl-1,4-dihydro-3-pyridinyl)carbonyloxy]estra-1,3,5(10)-trien-3-ol]: the “duration of plasma LH suppression” value in data set [1] (0.003 mg/kg i.v. daily for 5 days) is “up to 15 days”. Further, the “duration of statistically significant plasma LH suppression” value in data set [1] (0.03 mg/kg i.v. daily for 5 days) was “up to 18 days”. In addition, the “effect on plasma LH levels” value in data set [1] (all dosage levels tested: 0.003, 0.01 and 0.03 mg/kg i.v. daily for 5 days) is “suppressed”. Further, the “effect on lordosis quotient” value in data set [2] (setting [6]) is listed as “slightly enhanced”. The “period of the LQ effect” value was 3 to 18 days in data set [2] (setting [6]) and “day 5 to day 11” in data set [2] (setting [7]). Also, the “statistical significance of LQ effect” value in data set [2] (setting [6]) is “not statistically significant”. In data set [2] (setting [7]), the “day till which the LQ increase lasted (not statistically significant after day 11)” value is 15 days. For the same molecule, the “effect on lordosis quotient LQ” value in data set [2] (setting [7]) and in data set [2] (setting [8]) was “significantly enhanced” each time. The “maximal value of lordosis quotient (LQ)” value in data set [2] (setting [8]) came to 73. Also, the “period over which the LQ effect lasted” value in data set [2] (setting [8]) is “day 3 to day 18”. For the same molecule, the “estradiol levels after treatment” value is “below the limit of detection” in data set [3] (0.01 mg/kg daily for 10 days i.v.); “below the limit of detection” in data set [3] (0.03 mg/kg single dose i.v., repeated study); “below the limit of detection” in data set [3] (setting [9]); “below the limit of detection” in data set [3] (0.3 mg/kg single i.v., first study). The “solubility of E2-CDS (phase solubility data point)” value is given as 6.73 mg/mL in data set [4] (20% w/v HPβCD), 16.36 mg/mL in data set [4] (40% w/v HPβCD) and 30.19 mg/mL in data set [4] (60% w/v HPβCD). The “plasma LH level” value in data set [5] (0.01 mg/kg, 10 daily i.v. injections, day 3 to day 14) is “significantly reduced”; in data set [5] (0.03 mg/kg single injection, repeated examination, day 3 only), “significantly reduced”. For the same molecule, the “plasma LH levels” value in data set [5] (setting [9]) is recorded as “not reduced”; in data set [5] (0.3 mg/kg single i.v., days 1, 3 and 7), “significantly reduced”; in data set [5] (3 mg/kg single i.v., throughout 28 days) it was “suppressed significantly”.
